Measured values taken from US9705096B2, “Organic transistor, compound, organic semiconductor material for non-light-emitting organic semiconductor device, material for organic transistor, coating solution for non-light-emitting organic semiconductor device, organic semiconductor film for non-light-emitting organic semiconductor device, …” (FUJIFILM Corporation, priority 2014, dated 2017).

Test: Solubility in toluene
Type: physicochemical
Conditions: organic solvent or mixture, thermodynamic from solid; 20 mg compound mixed with toluene (1 mL)
Excerpt: A: The compound was completely dissolved.
B: A bit of the compound was left undissolved.
C: Most of the compound was left undissolved.

CC(C)CCCC(C)CCc1cc2sc3cc4sc5cc(CCC(C)CCCC(C)C)sc5c4cc3c2s1 (stereo not drawn) [Compound 31] and CC(C)CCCC(C)CCc1ccc(-c2cc3sc4cc5sc6cc(-c7ccc(CCC(C)CCCC(C)C)s7)sc6c5cc4c3s2)s1 (stereo not drawn) [Compound 33] cannot be ordered by solubility: greater than 20 mg/mL for the first, greater than 20 mg/mL for the second.

CCc1cc2sc3cc4sc5cc(CC)sc5c4cc3c2s1 [Comparative compound 1, reference compound] showed a solubility of less than 20 mg/mL.
